31 molecules from US20250171437A1 (Agios Pharmaceuticals,Inc., priority 2022, published 2025) can be followed below.

For orientation: AC50 means the midpoint of the concentration-response curve, whichever way the signal moves.

In the first assay the target is T1, human PAH with the R408W mutation (A375 R408W cells) (Homo sapiens, UniProt P00439, R408W).
T1 construct: expressed in transfected cells
T1 sequence (P00439 1-452 R408W): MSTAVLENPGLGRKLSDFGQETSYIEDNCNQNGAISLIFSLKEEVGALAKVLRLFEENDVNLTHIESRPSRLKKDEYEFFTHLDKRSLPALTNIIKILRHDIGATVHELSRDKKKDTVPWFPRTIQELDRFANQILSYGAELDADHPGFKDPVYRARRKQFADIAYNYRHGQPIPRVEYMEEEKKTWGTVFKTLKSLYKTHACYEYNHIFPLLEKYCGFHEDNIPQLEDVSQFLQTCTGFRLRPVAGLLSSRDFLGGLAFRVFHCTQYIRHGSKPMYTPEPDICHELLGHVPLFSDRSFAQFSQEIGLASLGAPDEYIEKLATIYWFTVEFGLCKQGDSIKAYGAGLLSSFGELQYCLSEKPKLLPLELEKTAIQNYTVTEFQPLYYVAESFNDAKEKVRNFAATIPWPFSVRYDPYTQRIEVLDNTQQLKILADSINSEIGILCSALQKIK
The experiment in a line: Cell Based Phenylalanine Flux Assay. As to conditions: A375 R408W cells; 24 hrs with compound, then 20 μM sepiapterin and 800 μM 13C9,15N-Phenylalanine for 4 hours; 13C-Tyrosine by LC-MS; average where tested multiple times. A digest of the protocol: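 A375 cells stably expressing human PAH R408W treated 24 h at 37° C with a 10-point 2-fold dose curve in duplicate, 0.5% DMSO. Then 20 μM sepiapterin and 800 μM 13C9,15N-Phe added for 4 h; 13C-Tyr in media measured by LC-MS to give AC50.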
`Cc1nc(C(C)(C)O)oc1C(=O)N1CCc2[nH]cnc2[C@@H]1c1nc2c(F)cccc2o1` [Example 260, (R)-(4-(4-fluorobenzo[d]oxazol-2-yl)-6,7-dihydro-1H-imidazo[4,5-c]pyridin-5(4H)-yl)(2-(2-hydroxypropan-2-yl)-4-methyloxazol-5-yl)methanone]: the AC50 is no less than 5000 nM.

As to `O=C(c1oc(COC(F)(F)F)nc1C(F)F)N1CCc2[nH]cnc2[C@H]1c1nc2cc(F)ccc2o1` [Example 115, (S)-(4-(difluoromethyl)-2-((trifluoromethoxy)methyl)oxazol-5-yl)(4-(5-fluorobenzo[d]oxazol-2-yl)-6,7-dihydro-1H-imidazo[4,5-c]pyridin-5(4H)-yl)methanone], the AC50 was 500 to 1000 nM. The same measure, in the same setting: to `O=C(c1ccnn1C(F)F)N1CCc2[nH]cnc2[C@H]1c1nc2c(F)cc(F)cc2o1` [Example 489, (S)-(4-(4,6-difluorobenzo[d]oxazol-2-yl)-6,7-dihydro-1H-imidazo[4,5-c]pyridin-5(4H)-yl)(1-(difluoromethyl)-1H-pyrazol-5-yl)methanone] belongs 500 to 1000 nM. As for `O=C(c1oc(C2(O)CC2)nc1C(F)F)N1CCc2[nH]cnc2[C@@H]1c1nc2cccc(F)c2o1` [Example 213, (R)-(4-(difluoromethyl)-2-(1-hydroxycyclopropyl)oxazol-5-yl)(4-(7-fluorobenzo[d]oxazol-2-yl)-6,7-dihydro-1H-imidazo[4,5-c]pyridin-5(4H)-yl)methanone], the AC50 was in the range of 500 to 1000 nM.

On to `Cn1cc(-c2nnc(C(=O)N3CCc4[nH]cnc4[C@H]3c3nc4c(F)ccc(F)c4o3)o2)cn1` [Example 518, (S)-(4-(4,7-difluorobenzo[d]oxazol-2-yl)-6,7-dihydro-1H-imidazo[4,5-c]pyridin-5(4H)-yl)(5-(1-methyl-1H-pyrazol-4-yl)-1,3,4-oxadiazol-2-yl)methanone], for which the AC50 was no more than 500 nM. The same measure, in the same setting: the same measure for `CN1CCN(c2ccc3c(C(=O)N4CCc5[nH]cnc5[C@@H]4c4nc5cc(F)ccc5o4)cnn3c2)CC1(C)C` [Example 140, (R)-(4-(5-fluorobenzo[d]oxazol-2-yl)-6,7-dihydro-1H-imidazo[4,5-c]pyridin-5(4H)-yl)(6-(3,3,4-trimethylpiperazin-1-yl)pyrazolo[1,5-a]pyridin-3-yl)methanone]: no less than 5000 nM; for `COCc1ccc2c(C(=O)N3CCc4[nH]cnc4[C@H]3c3nc4cc(C)ccc4o3)cnn2c1` [Example 877, (S)-(6-(methoxymethyl)pyrazolo[1,5-a]pyridin-3-yl)(4-(5-methylbenzo[d]oxazol-2-yl)-6,7-dihydro-1H-imidazo[4,5-c]pyridin-5(4H)-yl)methanone]: 1000 to 5000 nM; for `O=C(c1nnc(-c2cccnc2)o1)N1CCc2[nH]cnc2[C@@H]1c1nc2cc(F)ccc2o1` [Example 400, (R)-(4-(5-fluorobenzo[d]oxazol-2-yl)-6,7-dihydro-1H-imidazo[4,5-c]pyridin-5(4H)-yl)(5-(pyridin-3-yl)-1,3,4-oxadiazol-2-yl)methanone]: 1000 to 5000 nM. For the molecule `CC(C)(O)c1ncc(C(=O)N2CCc3[nH]cnc3[C@H]2c2nc3cccc(F)c3o2)o1` [Example 713, (S)-(4-(7-fluorobenzo[d]oxazol-2-yl)-6,7-dihydro-1H-imidazo[4,5-c]pyridin-5(4H)-yl)(2-(2-hydroxypropan-2-yl)oxazol-5-yl)methanone], the AC50 lay within 500 to 1000 nM. With `Cc1ccc2oc([C@H]3c4nc[nH]c4CCN3C(=O)c3ocnc3C(F)F)nc2c1` [Example 138, (R)-(4-(difluoromethyl)oxazol-5-yl)(4-(5-methylbenzo[d]oxazol-2-yl)-6,7-dihydro-1H-imidazo[4,5-c]pyridin-5(4H)-yl)methanone], the half-maximal activity concentration (AC50) is no more than 500 nM. Same read-out and setting: the same measure for `COc1ccc2c(C(=O)N3CCc4[nH]cnc4[C@H]3c3nc4c(F)cccc4o3)cnn2c1` [Example 539, (S)-(4-(4-fluorobenzo[d]oxazol-2-yl)-6,7-dihydro-1H-imidazo[4,5-c]pyridin-5(4H)-yl)(6-methoxypyrazolo[1,5-a]pyridin-3-yl)methanone]: no more than 500 nM. The same measure, in the same setting: the same measure for `Cc1ncoc1C(=O)N1CCc2[nH]cnc2[C@H]1c1nc2ccc(F)cc2o1` [Example 597, (S)-(4-(6-fluorobenzo[d]oxazol-2-yl)-6,7-dihydro-1H-imidazo[4,5-c]pyridin-5(4H)-yl)(4-methyloxazol-5-yl)methanone]: no more than 500 nM. `O=C(c1oc(-c2ccc(F)cn2)nc1C(F)F)N1CCc2[nH]cnc2[C@H]1c1nc2cccc(F)c2o1` [Example 632, (S)-(4-(difluoromethyl)-2-(5-fluoropyridin-2-yl)oxazol-5-yl)(4-(7-fluorobenzo[d]oxazol-2-yl)-6,7-dihydro-1H-imidazo[4,5-c]pyridin-5(4H)-yl)methanone]: the AC50 is no more than 500 nM. For the molecule `Cn1nccc1C(=O)N1CCc2[nH]cnc2[C@H]1c1nc2ccccc2o1` [Example 711, (S)-(4-(benzo[d]oxazol-2-yl)-6,7-dihydro-1H-imidazo[4,5-c]pyridin-5(4H)-yl)(1-methyl-1H-pyrazol-5-yl)methanone], the AC50 was 1000 to 5000 nM. For `CC(C)(O)c1nc(C(F)F)c(C(=O)N2CCc3[nH]cnc3[C@H]2c2nc3cc(OC(F)(F)F)ccc3o2)o1` [Example 351, (S)-(4-(difluoromethyl)-2-(2-hydroxypropan-2-yl)oxazol-5-yl)(4-(5-(trifluoromethoxy)benzo[d]oxazol-2-yl)-6,7-dihydro-1H-imidazo[4,5-c]pyridin-5(4H)-yl)methanone], the AC50 was no more than 500 nM. As to `C[C@H](O)c1nc(C(F)F)c(C(=O)N2CCc3[nH]cnc3[C@@H]2c2nc3cc(F)ccc3o2)o1` [Example 158, (4-(difluoromethyl)-2-((S)-1-hydroxyethyl)oxazol-5-yl)((R)-4-(5-fluorobenzo[d]oxazol-2-yl)-6,7-dihydro-1H-imidazo[4,5-c]pyridin-5(4H)-yl)methanone], the AC50 was 1000 to 5000 nM. The same measure, in the same setting: the same measure for `O=C(c1cnc(-c2ccccn2)o1)N1CCc2[nH]cnc2[C@@H]1c1nc2cc(F)ccc2o1` [Example 12, (R)-(4-(5-fluorobenzo[d]oxazol-2-yl)-6,7-dihydro-1H-imidazo[4,5-c]pyridin-5(4H)-yl)(2-(pyridin-2-yl)oxazol-5-yl)methanone]: 1000 to 5000 nM. Still for that read-out and setting: to `COCc1nc(C(F)F)c(C(=O)N2CCc3[nH]cnc3[C@H]2c2nc3cc(F)ccc3o2)o1` [Example 110, (S)-(4-(difluoromethyl)-2-(methoxymethyl)oxazol-5-yl)(4-(5-fluorobenzo[d]oxazol-2-yl)-6,7-dihydro-1H-imidazo[4,5-c]pyridin-5(4H)-yl)methanone] belongs 500 to 1000 nM; to `O=C(c1oc(-c2ccc(C(F)(F)F)cn2)nc1C(F)F)N1CCc2[nH]cnc2[C@@H]1c1nc2cccc(F)c2o1` [Example 634, (R)-(4-(difluoromethyl)-2-(5-(trifluoromethyl)pyridin-2-yl)oxazol-5-yl)(4-(7-fluorobenzo[d]oxazol-2-yl)-6,7-dihydro-1H-imidazo[4,5-c]pyridin-5(4H)-yl)methanone], no more than 500 nM; to `O=C(c1ocnc1C(F)F)N1Cc2[nH]cnc2[C@@H]1c1nc2ccccc2o1` [Example 922, (R)-(4-(benzo[d]oxazol-2-yl)-4,6-dihydropyrrolo[3,4-d]imidazol-5(1H)-yl)(4-(difluoromethyl)oxazol-5-yl)methanone], 1000 to 5000 nM.

For `Cc1cc(F)cc2nc([C@@H]3c4nc[nH]c4CCN3C(=O)c3ocnc3C(F)F)oc12` [Example 657, (S)-(4-(difluoromethyl)oxazol-5-yl)(4-(5-fluoro-7-methylbenzo[d]oxazol-2-yl)-6,7-dihydro-1H-imidazo[4,5-c]pyridin-5(4H)-yl)methanone], the AC50 is no more than 500 nM.

Staying with this assay, now noted: A375 cells expressing R408W PAH; 24 hrs with compound, then 20 μM sepiapterin and 800 μM 13C9,15N-Phenylalanine for 4 hours; 13C-Tyrosine by LC-MS; average where tested multiple times.
For `CC(C)(C)OC(=O)N1CCN(c2ccc3c(C(=O)N4CCc5[nH]cnc5C4c4nc5cc(F)ccc5o4)cnn3c2)CC1` (single isomer, unassigned) [4R enantiomer of tert-butyl 4-{3-[4-(5-fluoro-1,3-benzoxazol], the AC50 was no less than 5000 nM. In the case of `O=C(c1cnn2cc(CN3CCOCC3)ccc12)N1CCc2[nH]cnc2C1c1nc2cc(F)ccc2o1` (stereo not shown), the AC50 was in the range of 1000 to 5000 nM. On the same count and under the same terms, to `O=C([C@H]1CC1(F)F)N1CCc2[nH]cnc2[C@H]1c1nc2cc(F)ccc2o1` (single isomer, unassigned) belongs 1000 to 5000 nM; to `Cc1nc(C(C)O)oc1C(=O)N1CCc2[nH]cnc2C1c1nc2ccc(F)cc2o1` (stereo not shown), no less than 5000 nM.

Regarding `Cn1cc(-c2ncc(C(=O)N3CCc4[nH]cnc4C3c3nc4ccc(Br)cc4o3)s2)cn1` (stereo not shown), the concentration at half-maximal activity (AC50) lay in the range of 1000 to 5000 nM. Still for that read-out and setting: to `O=C(c1cnco1)N1CCc2[nH]cnc2C1c1nc2ccc(F)c(F)c2o1` (stereo not shown) belongs 1000 to 5000 nM; to `Cn1nc(Cl)nc1C(=O)N1CCc2[nH]cnc2C1c1nc2cc(F)ccc2o1` (stereo not shown), 1000 to 5000 nM; to `O=C(c1cnc(-c2ccccn2)s1)N1CCc2[nH]cnc2C1c1nc2ccc(Br)cc2o1` (stereo not shown), 1000 to 5000 nM. Take `O=C(Cc1cnn2ccccc12)N1CCc2[nH]cnc2C1c1nc2cc(F)ccc2o1` (stereo not shown): the AC50 was no less than 5000 nM. Consider `CN(C)CCNc1ccc2c(C(=O)N3CCc4[nH]cnc4C3c3nc4cc(F)ccc4o3)cnn2c1` (single isomer, unassigned) [4S enantiomer of N-[2-(dimethylamino)ethyl]-3-[4-(5-fluoro-1], for which the AC50 was no less than 5000 nM.
